# Results: patent publication US20110160054A1, “Pesticidal Mixtures Comprising Cyanosulfoximine Compounds and Spinetoram” (BASF SE, priority 2008, published 2011)
# Where two headings read alike, the source gives them in different places.
# How the values were obtained:
# Format in all cases: cell-based
# Settings in all cases: single compound, 7 days after inoculation
# Botrytis cinerea = assay: Activity against the grey mold Botrytis cinerea in the microtiterplate test (Botrci)
# Septoria tritici = assay: Activity against leaf blotch on wheat caused by Septoria tritici, microtiter test (Septtr)
# Phytophthora infestans = system: Phytophthora infestans
# Pyricularia oryzae = system: Pyricularia oryzae
compound,measurement,setting,value
Cn1cc(C(=O)Nc2ccccc2C2CC2C2CC2)c(C(F)F)n1 (centres unmarked) [sedaxane],Observed efficacy,Botrytis cinerea; 0.25 ppm,41%
"CO/C=C(/C(=O)OC)c1ccccc1Oc1cc(Oc2ccccc2C#N)ncn1 [Azoxystrobin, azoxystrobin]",Observed efficacy,Septoria tritici; 0.063 ppm,56%
propineb,Observed efficacy,Septoria tritici; 1 ppm,25%
same,Observed efficacy,Phytophthora infestans; 1 ppm,23%
"Fc1ccc([C@]2(Cn3cncn3)O[C@H]2c2ccccc2Cl)cc1 (racemic) [Epoxiconazol, epoxiconazole]",Observed efficacy,Botrytis cinerea; 0.25 ppm,25%
Spinetoram,Observed efficacy,Botrytis cinerea; 0.25 ppm,1%
same,Observed efficacy,Botrytis cinerea; 4 ppm,1%
same,Observed efficacy,Botrytis cinerea; 16 ppm,0%
same,Observed efficacy,Botrytis cinerea; 63 ppm,21%
same,Observed efficacy,Septoria tritici; 16 ppm,0%
same,Observed efficacy,Septoria tritici; 63 ppm,4%
same,Observed efficacy,Phytophthora infestans; 4 ppm,2%
same,Observed efficacy,Phytophthora infestans; 16 ppm,24%
same,Observed efficacy,Pyricularia oryzae; 4 ppm,2%
same,Observed efficacy,Pyricularia oryzae; 16 ppm,2%
same,Observed efficacy,Pyricularia oryzae; 63 ppm,34%
"OC(Cc1ccccc1Cl)(Cn1nc[nH]c1=S)C1(Cl)CC1 (centres unmarked) [Prothioconazol, prothioconazole]",Observed efficacy,Botrytis cinerea; 0.063 ppm,19%
"Cc1ccc(-c2c(Cl)nc(C#N)n2S(=O)(=O)N(C)C)cc1 [Cyazofamid, cyazofamid]",Observed efficacy,Phytophthora infestans; 0.063 ppm,67%
"CC1(C(=O)Nc2ccc(O)c(Cl)c2Cl)CCCCC1 [Fenhexamid, fenhexamid]",Observed efficacy,Septoria tritici; 16 ppm,33%
CC(C)CC(C)c1sccc1NC(=O)c1cn(C)nc1C(F)(F)F (centres unmarked) [penthiopyrad],Observed efficacy,Botrytis cinerea; 0.063 ppm,32%
same,Observed efficacy,Botrytis cinerea; 0.25 ppm,45%
same,Observed efficacy,Pyricularia oryzae; 0.25 ppm,6%
same,Observed efficacy,Pyricularia oryzae; 1 ppm,55%
"COC(=O)N(OC)c1ccccc1COc1ccn(-c2ccc(Cl)cc2)n1 [Pyraclostrobin, pyraclostrobin]",Observed efficacy,Botrytis cinerea; 0.25 ppm,4%
"COC(=O)Nc1nc2ccccc2[nH]1 [Carbendazim, carbendazim]",Observed efficacy,Pyricularia oryzae; 0.25 ppm,15%
mancozeb,Observed efficacy,Botrytis cinerea; 16 ppm,46%
